Reference: patent publication US11713315B2, “5 to 7 membered heterocyclic amides as JAK inhibitors” (priority 2018, dated 2023)

Assay: Lung S9 metabolism
Assay type: in vitro ADME
Conditions: human lung S9; qualitative observation of O-sulfate metabolite peak
Description: Lung S9 fractions from human (lot 1410245) were purchased from XenoTech LLC (Lenexa, Kans.). NADPH (Sigma Aldrich, N1630) and 3-phosphoadenosine 5-phosphosulfate (PAPS) (Sigma Aldrich, A1651) were purchased from Sigma Aldrich (St. Louis, Mo.). Acetonitrile and water were obtained from VWR (Radnor, Pa.) and were of HPLC grade or better. Raloxifene and formic acid was purchased from Sigma Aldrich (St. Louis, Mo.). Lung S9 incubations were performed in a water bath at 37° C. in a 96-well polypropylene plate. […] All samples were centrifuged at 2250 g for 10 minutes at 5° C. Supernatant […] was taken from the centrifuged samples and diluted into 1004 HPLC water containing internal standard. […] Mobile Phase A consisted of Water+0.2% formic acid and Mobile Phase B consisted of acetonitrile+0.2% formic acid. Peak integration was accomplished using Gubbs GMSU software (Gubbs Inc., Alpharetta, Ga.). For each sample, peak area ratios were calculated by dividing the analyte peak area by the internal standard peak area. […] Determination of sulfate metabolite formation was made qualitatively by observation of early-eluting peak in the parent ion channel which, based on historical internal data, corresponded to the 0-sulfate metabolite of each parent compound.

Structure (SMILES)	Sulfate Appearance
CCCN1Cc2[nH]c(-c3n[nH]c4cc(-c5ccc(O)cc5CC)ccc34)nc2C[C@H]1C(=O)N1CCN(CCO)CC1 [Compound 1, (S)-(2-(6-(2-ethyl-4-hydroxyphenyl)-1H-indazol-3-yl)-5-propyl-4,5,6,7-tetrahydro-3H-imidazo[4,5-c]pyridin-6-yl)(4-(2-hydroxyethyl)piperazin-1-yl)methanone]	Yes
CCCN1Cc2[nH]c(-c3n[nH]c4cc(-c5ccc(O)cc5CC)ccc34)nc2C[C@H]1C(=O)N1C[C@@H]2C[C@H]1CN2C [Compound 2, ((S)-2-(6-(2-ethyl-4-hydroxyphenyl)-1H-indazol-3-yl)-5-propyl-4,5,6,7-tetrahydro-3H-imidazo[4,5-c]pyridin-6-yl)((1S,4S)-5-methyl-2,5-diazabicyclo[2.2.1]heptan-2-yl)methanone]	Yes
CCc1cc(O)ccc1-c1ccc2c(-c3nc4c([nH]3)CN(C)[C@H](C(=O)N3CCN(C)C[C@@H]3C)C4)n[nH]c2c1 [Compound 3, ((S)-2,4-dimethylpiperazin-1-yl)((S)-2-(6-(2-ethyl-4-hydroxyphenyl)-1H-indazol-3-yl)-5-methyl-4,5,6,7-tetrahydro-3H-imidazo[4,5-c]pyridin-6-yl)methanone]	Yes
CCc1cc(O)ccc1-c1ccc2c(-c3nc4c([nH]3)CN(C(C)C)[C@H](C(=O)N3CCCN(C)CC3)C4)n[nH]c2c1 [Compound 4, (S)-(2-(6-(2-ethyl-4-hydroxyphenyl)-1H-indazol-3-yl)-5-isopropyl-4,5,6,7-tetrahydro-3H-imidazo[4,5-c]pyridin-6-yl)(4-methyl-1,4-diazepan-1-yl)methanone]	Yes
CCc1cc(O)ccc1-c1ccc2c(-c3nc4c([nH]3)CN(C)[C@H](C(=O)N3CCN(CCO)C[C@H]3C)C4)n[nH]c2c1 [Compound 5, ((S)-2-(6-(2-ethyl-4-hydroxyphenyl)-1H-indazol-3-yl)-5-methyl-4,5,6,7-tetrahydro-3H-imidazo[4,5-c]pyridin-6-yl)((R)-4-(2-hydroxyethyl)-2-methylpiperazin-1-yl)methanone]	Yes
CCc1cc(O)ccc1-c1ccc2c(-c3nc4c([nH]3)CN(C(C)C)[C@H](C(=O)N3CC[C@H](N(C)C)C3)C4)n[nH]c2c1 [Compound 6, ((S)-3-(dimethylamino)pyrrolidin-1-yl)((S)-2-(6-(2-ethyl-4-hydroxyphenyl)-1H-indazol-3-yl)-5-isopropyl-4,5,6,7-tetrahydro-3H-imidazo[4,5-c]pyridin-6-yl)methanone]	Yes
CCCN1Cc2[nH]c(-c3n[nH]c4cc(-c5cc(F)c(O)cc5CC)ccc34)nc2C[C@H]1C(=O)N1CCN(CCO)CC1 [Compound C-1, (S)-(2-(6-(2-ethyl-5-fluoro-4-hydroxyphenyl)-1H-indazol-3-yl)-5-propyl-4,5,6,7-tetrahydro-3H-imidazo[4,5-c]pyridin-6-yl)(4-(2-hydroxyethyl)piperazin-1-yl)methanone]	Yes
CCCN1Cc2[nH]c(-c3n[nH]c4cc(-c5cc(F)c(O)cc5CC)ccc34)nc2C[C@H]1C(=O)N1C[C@@H]2C[C@H]1CN2C [Compound C-2]	Yes
CCc1cc(O)c(F)cc1-c1ccc2c(-c3nc4c([nH]3)CN(C)[C@H](C(=O)N3CCN(C)C[C@@H]3C)C4)n[nH]c2c1 [Compound C-3, ((S)-2,4-dimethylpiperazin-1-yl)((S)-2-(6-(2-ethyl-5-fluoro-4-hydroxyphenyl)-1H-indazol-3-yl)-5-methyl-4,5,6,7-tetrahydro-3H-imidazo[4,5-c]pyridin-6-yl)methanone]	Yes
CCc1cc(O)c(F)cc1-c1ccc2c(-c3nc4c([nH]3)CN(C(C)C)[C@H](C(=O)N3CCCN(C)CC3)C4)n[nH]c2c1 [Compound C-4, (S)-(2-(6-(2-ethyl-5-fluoro-4-hydroxyphenyl)-1H-indazol-3-yl)-5-isopropyl-4,5,6,7-tetrahydro-3H-imidazo[4,5-c]pyridin-6-yl)(4-methyl-1,4-diazepan-1-yl)methanone]	Yes
CCc1cc(O)c(F)cc1-c1ccc2c(-c3nc4c([nH]3)CN(C)[C@H](C(=O)N3CCN(CCO)C[C@H]3C)C4)n[nH]c2c1 [Compound C-5, ((S)-2-(6-(2-ethyl-5-fluoro-4-hydroxyphenyl)-1H-indazol-3-yl)-5-methyl-4,5,6,7-tetrahydro-3H-imidazo[4,5-c]pyridin-6-yl)((R)-4-(2-hydroxyethyl)-2-methyl-piperazin-1-yl)methanone]	Yes
CCc1cc(O)c(F)cc1-c1ccc2c(-c3nc4c([nH]3)CN(C(C)C)[C@H](C(=O)N3CC[C@H](N(C)C)C3)C4)n[nH]c2c1 [Compound C-6]	Yes
